One data set in a line: Solubility at pH 7.4. The class given is physicochemical. As to the method: Physicochemical properties
The Physicochemical profiling (LogD, Solubility, Caco-2 cell permeability) was performed as previously
described.8 Cell viability was performed as described below.
Table S2. Pharmacokinetic Properties
Compound Structure logD, Solubility, Rat hepsa Human mics b

Another data set has as its system c-MYC Pu22 G4 DNA. The experiment in a line: FRET melting assay, c-MYC Pu22 G4 DNA. Particulars: c-MYC Pu22 G4 DNA 0.2 μM; for increased thermal stability (ΔTm): 40 equivalences of added compound. The class given is binding, human. An excerpt: The synthesized compounds (2–11) were first analyzed using a Förster resonance energy transfer (FRET) assay (Figure 2A). This assay measures the compounds’ ability to affect the thermal stability of fluorescently labeled DNA, in this case, the c-MYC Pu22 G4 DNA (Table S1). […] The addition of one methyl group to the quinazoline core (3) provides almost twice as strong thermal stability compared to 2. The addition of a second methyl group (4) further increased stabilization, albeit modestly (by 0.5 °C). This slight increase between 3 and 4 could stem from the suboptimal positioning of the added methyl substituent in relation to the guanines on the G4 surface, compared to other positions on the quinazoline ring. […] Furthermore, the methyl-substituted (4) and the methoxy-substituted (6) display a similar G4 stabilization despite the strong electrostatic character of the methoxy substituent compared to the neutral methyl group, which further supports that these interactions are dispersion-driven. This conclusion is further supported by the fact that the replacement of the methoxy group in 6 with chlorine in 7 results in a very similar stabilization as 3, 4, and 6.
Synthetic labeled oligonucleotides for the FRET study were purchased from Eurofins Genomics. Stock solutions were prepared in MQ-water at 100 μM concentration. The sequences used are listed in Supporting Information Table S1. All the oligonucleotides except Pu22 were prefolded in 10 mM lithium cacodylate buffer (pH 7.4), with 10 mM KCl and 90 mM LiCl by heating for 10 min at 95 °C and then cooling in fridge for at least 1 h. Pu22 was folded in 10 mM lithium cacodylate buffer (pH 7.4), with 2 mM KCl and 98 mM LiCl.
The FRET occurs between two dyes (5′-FAM as donor and 3′-TAMRA as acceptor) linked at both extremities of a DNA oligonucleotide. When the oligonucleotides are folded into G4 structures, the donor and acceptor are in proximity, which results in an energy transfer from the donor to the acceptor. This process can be detected by a reduction in the fluorescence emission of the donor. Fluorescence emission of the donor is recovered when the temperature increment triggers the thermal denaturation of the G4 structure. The experiments were performed in a Bio-Rad CFX96 real-time PCR device at temperatures from 10 to 95 °C at 1.5 °C/m heating rate using a 492 nm excitation wavelength and a 516 nm detection wavelength in 96-well plates. […] The stabilization (ΔTm) is calculated from comparison of Tm of the fluorescently labeled oligonucleotide in the presence or absence of the ligand. […]
The fluorescence resonance energy transfer (FRET) occurs between two dyes (5'-FAM as donor and 3'- TAMRA as acceptor) linked at both extremities of a DNA oligonucleotide. […]

The target of the next data set is Pu24T c-MYC G4 structure. The experiment in a line: Kd for binding to the Pu24T c-MYC G4 structure (supplementary CSV). On the set-up: species or system human. As to the method: 5′-Cy5 labeled G4 DNAs for this study were purchased from Eurofins Genomics. Stock solutions were prepared in water at 100 μM concentration. The sequences used are listed in Supporting Information Table S1. The G4 DNA sequences were folded in KCl buffer (10 mM phosphate, 100 mM KCl, pH 7.4) by heating at 95 °C for 5 min and then cooling to room temperature. All the experiments were performed in 10 mM phosphate pH 7.4, 100 mM KCl, and 0.05% Tween20. The labeled DNA concentration is held constant at 25 nM, and ligand concentration is varied depending on ligands Kd (16 1:3 dilutions). The samples were loaded into standard MST graded glass capillaries and initial fluorescence intensity of the capillary was measured using Monolith NT.115 (Nano Temper, Germany) with 20% LED power. The change in fluorescence with ligand’s concentrations were plotted in Excel and fitted through nonlinear equation to obtain the binding constants.
The Supporting Information is available free of charge at https://pubs.acs.org/doi/10.1021/acs.jmedchem.3c02127. • Experimental procedures and data; assay data, computational results, and all cell data; NMR (^1H and ^13C) spectra for all compounds (with the exception of a few intermediates); and HPLC UV traces for the final compounds (PDF) • Molecular formula strings and Kd values for binding to the Pu24T c-MYC G4 structure (CSV)

Data set [1] is described as follows: Intrinsic clearance in human microsomes. Format: in vitro ADME. Particulars: read-out: Human mics: intrinsic clearance in human microsomes. The protocol:
All compounds (2–11, 25–29) were screened for their logD and solubility at pH 7.4 and for their intrinsic clearance in rat hepatocytes and human microsomes (Table S2). […] Replacing the basic amine side chain to a methyl substituent in the quinazolines (25–29) still retained good solubility (134 to over 1000 μM) but increased clearance in both rat hepatocytes and human microsomes. The logD was low for compounds with a basic amine side chain (2–11) and increased slightly when the amine was replaced with a methyl (25–29). As expected, additional substituents also affected the logD with the chloro-substituents increasing logD the most.
a Intrinsic clearance in rat hepatocytes ((μL/min)/10^6 cells).b Intrinsic clearance in human microsomes (μL/min/mg). […]

Molecules are shown by their SMILES. Values after ≈ are worked out from the molar mass of the structure shown.

In turn, `Cc1cc(NCCCN(C)C)nc(Nc2ncc3ccccc3n2)n1` [Compound 2, N4-(3-(Dimethylamino)propyl)-6-methyl-N2-(quinazolin-2-yl)pyrimidine-2,4-diamine] gave a solubility in the data set “Solubility at pH 7.4” of over 1000 µM. The “increased thermal stability (ΔTm)” value in the data set with c-MYC Pu22 G4 DNA came out at 7.5 °C. This compound also registered a Kd at Pu24T c-MYC G4 structure of 1400 ± 300 nM. The microsomal CLint in data set [1] is under 3 µL/min/mg.
The like results for `Cc1cc(C)c2nc(Nc3nc(C)cc(NCCCN(C)C)n3)nc(C)c2c1` [Compound 5, N4-(3-(Dimethylamino)propyl)-6-methyl-N2-(4,6,8-trimethylquinazolin-2-yl)pyrimidine-2,4-diamine] were, in that order, 962 µM (≈ 365 µg/mL), 20 °C, 50 ± 4 nM and under 3 µL/min/mg.
For the compound `Cc1cc(C)c2nc(Nc3nc(C)cc(C)n3)nc(C)c2c1` [Compound 27, N-(4,6-Dimethylpyrimidin-2-yl)-4,6,8-trimethylquinazolin-2-amine], the concentration in solution in “Solubility at pH 7.4” (solubility) came to 264 µM (≈ 77.5 µg/mL). Also, the “increase in thermal stability (ΔTm)” value with c-MYC Pu22 G4 DNA (compound 8 μM) came out at 12 °C. Besides, on Pu24T c-MYC G4 structure, the affinity, expressed as Kd, was 800 ± 100 nM. The microsomal CLint in data set [1] came to 140 µL/min/mg.

The values above are taken from article PMC10860144, “Exploring the Dispersion and Electrostatic Components in Arene–Arene Interactions between Ligands and G4 DNA to Develop G4-Ligands” (Journal of Medicinal Chemistry, 2024).
